Reference: paper PMC7672424 (Nucleic Acids Research, 2020)

Legend:
[1] = system: TTA45 (DNA, G4) GGGTTAGGGTTAGGGTTAGGGTTAGGGTTAGGGTTAGGGTTAGGG; experiment: CD melting; conditions: 50 mM K+; 10 mM Tris-HCl pH 7.4; 5 µM DNA, 20 µM compound
[2] = system: TTA45; experiment: CD melting, DNA stabilization; format: binding, human; conditions: 5 µM DNA, 20 µM compound, 10 mM Tris-HCl, 50 mM KCl, pH 7.4
Source text: Compounds Structures IC /µM m

[3] = system: Duplex; experiment: CD melting, DNA stabilization; format: binding; conditions: 5 µM DNA (19AT), 20 µM BMPQ-1, 10 mM Tris-HCl, 50 mM KCl, pH 7.4
Description: Figure S2. Normalized CD thermal melting curves of DNAs in the absence or presence of BMPQ-1 under K+ conditions. (A) TTA69, (B) TTA45, (C) TTA, (D) c-KIT1, (E) TBA, (F) duplex DNA 19AT. The DNA concentration was 5 µM, and BMPQ-1 was 10 µM or 20 µM. All measurements were carried out in the buffer with 10 mM Tris-HCl (pH 7.4), 50 mM KCl. […]

[4] = system: dimeric G-quadruplexes (TTA45); experiment: Fluorescence response of BMPQ-1 to DNA; format: binding, human; conditions: 3 μM BMPQ-1, 2 μM TTA45, λex = 395 nm
Description: Figure 1. (A) Structure of BMPQ-1. (B) Fluorescence spectra of BMPQ-1 at λex = 395 nm in the absence or presence of dimeric G-quadruplexes (TTA45), monomeric G-quadruplexes (c-KIT1, c-KIT2, c-MYCPu22, TTA, VEGF, TBA), trinucleotide DNA (CGG12), duplex DNA (19AT) and single-stranded DNA (dT30). The concentration of BMPQ-1 was 3 μM. The concentration of TTA45 was 2 μM and DNAs with other structures were 4 μM. (C) Fluorescence spectra of 6 μM BMPQ-1 at λex = 395 nm in the absence or presence of 2 μM telomeric G-quadruplexes. Oligonucleotide samples were prepared in solution with 10 mM K2HPO4/KH2PO4, pH 7.0, 100 mM KCl. (D) Effect of BMPQ-1 on the CD spectra of 10 μM TTA45 in 10 mM Tris-HCl buffer (pH 7.4) containing 100 mM KCl.
G-quadruplex forming oligonucleotides were annealed in the buffer (10 mM K2HPO4/KH2PO4 pH 7.0, 100 mM KCl) by heating to 95°C for 5 min, followed by gradual cooling to room temperature. Fluorescence spectra were detected by RF-5301PC spectrofluorophotometer (Shimadzu, Japan) at room temperature. The spectra were recorded with 5 nm excitation and emission slit widths. […] For the fluorescence measurements between BMPQ-1 and different DNA sequences, the final concentrations of multimeric G-quadruplex forming oligonucleotides were 2 μM and other DNA oligonucleotides were 4 μM.

[5] = system: HT29 xenograft; experiment: HT29 xenograft mouse model; format: in vivo
Description: Male BALB/C-nu/nu mice (4 weeks old) were purchased from the Beijing Vital River Laboratory Animal Technology Co., Ltd. and housed at Experimental Animal Center of Huazhong Agriculture University (Wuhan, China) and maintained in pathogen-free conditions (12 h light–dark cycle at 24 ± 1°C with 60−70% humidity and provided with food and water ad libitum). HT29 cells were harvested during log-phase growth and were resuspended in FBS-free DMEM medium to the density of 4 × 10^6 cells per 100 μl. 100 μl cells were injected subcutaneously in the right back of the mice. Tumor growth was examined three times a week after implantation, until the tumor volume reached ∼40 mm^3. The mice were randomly divided into two groups, and each group had five mice. Subcutaneous injection was carried out with BMPQ-1 at a dose of 15 mg/kg for the mice in the experimental group. Mice in the control group were treated with an equivalent volume of normal saline. The volume of the tumor mass was measured with an electronic caliper and calculated as 1/2 × length × width^2 in mm^3. The tumors size and the body weight of the mice were measured every day after drug treatment, and growth curves were plotted using average tumor volume within each experimental group. After treatment for 3 weeks, tumor tissues were collected and tested for the weight and the volume.
We tested BMPQ-1 in a HT29 xenograft mouse model of human colon adenocarcinoma. HT29 tumors were established through the subcutaneous injection of HT29 cells into the right back of BALB/C-nu/nu mice ([57],[58]). The mice were divided into normal saline treated group, and BMPQ-1 (15 mg/kg) treated group, n = 5/group. Subcutaneous injection was given daily. After 3 weeks treatment, the tumors were excised and measured for final size (Figure 3B). The tumor volume in the normal saline group reached 700 mm^3 (Figure 3C). In contrast, in the tumor-bearing mice treated with BMPQ-1, the tumor volume was ∼300 mm^3.

[6] = system: Tel26 (DNA, G4) AAAGGGTTAGGGTTAGGGTTAGGGAA; experiment: CD titration; conditions: 100 mM K+; 10 mM Tris-HCl pH 7.4; 265 nm peak decreased
[7] = system: TTA; conditions: CD melting; 5 µM DNA, 20 µM compound; 10 mM Tris-HCl, 50 mM KCl, pH 7.4
Description: CD studies were performed on a Chirascan circular dichroism spectrophotometer (Jasco, Easton, MD, USA). A quartz cuvette with a 1 mm path length was used to record the spectra over a wavelength range of 220–320 nm with a 1 nm bandwidth. All the samples were prepared in buffer containing 10 mM Tris–HCl pH 7.4, 100 mM KCl. To ensure the concentrations of G-quadruplex units to be 20 μM, multiple G-quadruplexes forming oligonucleotides with different concentrations were used (TTA (G1) 20 μM, TTA45 (G2) 10 μM, TTA69 (G3) 6.67 μM, TTA93 (G4) 5 μM, TTA117 (G5) 4 μM, TTA141 (G6) 3.33 μM). The DNA samples were heated at 95°C for 5 min and cooled down slowly to room temperature. […] Melting curves were measured at 295 nm and the range of temperature was 4–95°C.
a Melting temperature (T ) of 5 µM DNA samples with and without 20 µM BMPQ-1 analogs in 10 mM Tris-HCl
buffer (50 mM KCl, pH 7.4) was determined by circular dichroism spectroscopy, and ΔTm/°C were derived by

[8] = system: TTA43 (DNA, G4) GGGTTAGGGTTAGGGTTAGGGTGGGTTAGGGTTAGGGTTAGGG; experiment: fluorescence titration; conditions: 100 mM K+ (KCl) plus potassium phosphate; 10 mM K2HPO4/KH2PO4 pH 7.0; 3 µM compound, DNA 0-10 µM; weaker than TTA45
[9] = system: TTA51/T3 (DNA, G4) GGGTTAGGGTTAGGGTTAGGGTTATTATTAGGGTTAGGGTTAGGGTTAGGG; experiment: fluorescence titration; conditions: 100 mM K+ (KCl) plus potassium phosphate; 10 mM K2HPO4/KH2PO4 pH 7.0; 3 µM compound, DNA 0-10 µM; weaker than TTA45
[10] = system: c-MYC Pu22 (DNA, G4) TGAGGGTGGGTAGGGTGGGTAA; experiment: ligand fluorescence enhancement; conditions: 100 mM K+ (KCl) plus potassium phosphate; 10 mM K2HPO4/KH2PO4 pH 7.0; 3 µM compound, 4 µM DNA; enhancement below 3-fold
[11] = 15 mg/kg subcutaneous daily, 3 weeks

With `Cc1ccc(Cn2cc3c(-c4ccc5c(c4)OCO5)nnc-3c3cc4c(cc32)OCO4)cc1` [BMPQ-1] the ΔTm [1] was 14.6 °C, the “ΔTm (°C) TTA45” value [2] was 14.6 °C and the “ΔTm (°C) Duplex” value [3] was 1.8 °C. The “fluorescence increase at 521 nm” value [4] was 10 fold, the mouse body weight [5, 11] was “no significant change” and the tumor weight [5, 11] was “obvious decrease”. For the same compound, the tumor volume ([5]; 15 mg/kg subcutaneous daily, 3 weeks, saline group 700 mm^3) was roughly 300 mm^3, the “tumor growth rate in mouse” value ([5]; versus control) was “by half” and the binding [6] was “yes”. For the same compound, the “ΔTm (°C) TTA” value [7] was 8.4 °C, the binding [8] was “yes” and the binding [9] was “yes”. The binding [10] was “weak”.
